Experimental data: patent publication US4698352A, “4-oxo-1,4-dihydronicotinic acid derivatives, salts thereof, and antibacterial agents containing the same” (Toyama Chemical Co., Ltd., priority 1982, dated 1987)
Values after ≈ are worked out from the molar mass of the structure shown. Read-outs that look alike come from different tables or passages of the source.

How the values were obtained:
Assay in all cases: Antibacterial activity (MIC), agar dilution
Assay type in all cases: cell-based
Aci. antitratus A-6 = settings: 20 h, Aci. antitratus A-6; 10^6 cells per ml; 37° C., 20 hours; read-out: MIC
From the text: (§1) The amount of bacteria inoculated was 10^4 cells per plate (10^6 cells per ml).

E. coli NIHJ JC-2 = settings: Escherichia coli, NIHJJC2, 20 h, E. coli NIHJ JC-2; 10^6 cells per ml; 37° C., 20 hours; read-out: MIC
From the text: as §1

E. coli TK-111 = settings: Escherichia coli, TK111, 20 h, E. coli TK-111; 10^6 cells per ml; 37° C., 20 hours; read-out: MIC
From the text: as §1

Ent. cloacae IID977 = settings: Enterobacter cloacae, IID977, 20 h, Ent. cloacae IID977; 10^6 cells per ml; 37° C., 20 hours; read-out: MIC
From the text: as §1

Kl. pneumoniae Y-41 = settings: Klebsiella pneumoniae, Y41, 10^6 cells per ml, 37° C., 20 hours, read-out: MIC
From the text: as §1

Kl. pneumoniae Y-50 = settings: Klebsiella pneumoniae, Y50, 20 h, 10^6 cells per ml, 37° C., read-out: MIC
From the text: as §1

Pro. mirabilis T-111 = settings: Proteus mirabilis, 37° C.
From the text: as §1

Pro. morganii T-216 = settings: Morganella morganii, 37° C.
From the text: as §1

Pro. vulgaris GN3027 = settings: Proteus vulgaris, GN3027, 20 h, Pro. vulgaris GN3027; 10^6 cells per ml; 37° C., 20 hours; read-out: MIC
From the text: as §1

Ps. aeruginosa IFO3445 = settings: Pseudomonas aeruginosa; Ps. aeruginosa IFO3445; 10^6 cells per ml; 37° C., 20 hours; read-out: MIC
From the text: as §1

Ps. aeruginosa S-68 = settings: Pseudomonas aeruginosa, S68; Ps. aeruginosa S-68; 10^6 cells per ml; 37° C., 20 hours; read-out: MIC
From the text: as §1

St. aureus FDA209P = settings: Staphylococcus aureus, FDA209P, 20 h, St. aureus FDA209P; 10^6 cells per ml; 37° C., 20 hours; read-out: MIC
From the text: as §1

E. coli TK-3* = settings: Escherichia coli, 20 h, E. coli TK-3, penicillinase-producing; 10^6 cells per ml; read-out: MIC
From the text: as §1
(§2) * Penicillinase-producing bacteria

Kl. pneumoniae Y-4* = settings: Klebsiella pneumoniae, 20 h, Kl. pneumoniae Y-4, penicillinase-producing; 10^6 cells per ml; read-out: MIC
From the text: as §1, §2

Ps. aeruginosa GN3379* = settings: Pseudomonas aeruginosa, 20 h; Ps. aeruginosa GN3379, penicillinase-producing; 10^6 cells per ml; read-out: MIC
From the text: as §1, §2

St. aureus F-137* = settings: Staphylococcus aureus, 20 h, St. aureus F-137, penicillinase-producing; 10^6 cells per ml; read-out: MIC
From the text: as §1, §2

E. coli GN5482** = settings: Escherichia coli, 20 h; E. coli GN5482, cephalospolinase-producing; 10^6 cells per ml; read-out: MIC
From the text: as §1
(§3) ** Cephalospolinase-producing bacteria

Pro. vulgaris GN76** = settings: Proteus vulgaris, 20 h; Pro. vulgaris GN76, cephalospolinase-producing; 10^6 cells per ml; read-out: MIC
From the text: as §1, §3

Ps. aeruginosa GN918** = settings: Pseudomonas aeruginosa, Ps. aeruginosa GN918, cephalospolinase-producing, 10^6 cells per ml
From the text: as §1, §3

[1] = T111, 10^6 cells per ml, 20 hours, read-out: MIC
[2] = T216, 10^6 cells per ml, 20 hours, read-out: MIC

| Compound | MIC (Aci. antitratus A-6) | MIC (E. coli NIHJ JC-2) | MIC (E. coli TK-111) | MIC (Ent. cloacae IID977) | MIC (Kl. pneumoniae Y-41) | MIC (Kl. pneumoniae Y-50) | MIC (Pro. mirabilis T-111; [1]) | MIC (Pro. morganii T-216; [2]) | MIC (Pro. vulgaris GN3027) | MIC (Ps. aeruginosa IFO3445) | MIC (Ps. aeruginosa S-68) | MIC (St. aureus FDA209P) | MIC (E. coli TK-3*) | MIC (Kl. pneumoniae Y-4*) | MIC (Ps. aeruginosa GN3379*) | MIC (St. aureus F-137*) | MIC (E. coli GN5482**) | MIC (Pro. vulgaris GN76**) | MIC (Ps. aeruginosa GN918**; 20 h, read-out: MIC) | further results |
| --- | --- | --- | --- | --- | --- | --- | --- | --- | --- | --- | --- | --- | --- | --- | --- | --- | --- | --- | --- | --- |
| Cn1ccc2cc(-c3cc(=O)c(C(=O)O)cn3-c3ccc(O)cc3F)ccc21 | ≤ 0.05 µg/mL | ≤ 0.05 µg/mL | ≤ 0.05 µg/mL | 0.39 µg/mL (≈ 1.03 µM) | 0.39 µg/mL (≈ 1.03 µM) | 0.2 µg/mL (≈ 0.529 µM) | 0.39 µg/mL (≈ 1.03 µM) | 0.39 µg/mL (≈ 1.03 µM) | ≤ 0.05 µg/mL | 1.56 µg/mL (≈ 4.12 µM) | 1.56 µg/mL (≈ 4.12 µM) | 0.05 µg/mL (≈ 0.132 µM) | 0.2 µg/mL (≈ 0.529 µM) | 0.78 µg/mL (≈ 2.06 µM) | 3.13 µg/mL (≈ 8.27 µM) | ≤ 0.05 µg/mL | ≤ 0.05 µg/mL | 0.39 µg/mL (≈ 1.03 µM) | 0.78 µg/mL (≈ 2.06 µM) | – |
| CC(=O)Oc1ccc(-n2cc(C(=O)OCCN(C)C)c(=O)cc2-c2ccc3c(ccn3C)c2)c(F)c1 | 0.39 µg/mL (≈ 0.793 µM) | 0.1 µg/mL (≈ 0.203 µM) | ≤ 0.05 µg/mL | 0.78 µg/mL (≈ 1.59 µM) | 3.13 µg/mL (≈ 6.37 µM) | 0.39 µg/mL (≈ 0.793 µM) | 1.56 µg/mL (≈ 3.17 µM) | – | 0.1 µg/mL (≈ 0.203 µM) | 6.25 µg/mL (≈ 12.7 µM) | 6.25 µg/mL (≈ 12.7 µM) | ≤ 0.05 µg/mL | 0.39 µg/mL (≈ 0.793 µM) | 3.13 µg/mL (≈ 6.37 µM) | 12.5 µg/mL (≈ 25.4 µM) | ≤ 0.05 µg/mL | ≤ 0.05 µg/mL | 0.78 µg/mL (≈ 1.59 µM) | 1.56 µg/mL (≈ 3.17 µM) | MIC (Pro. morganii T-216; T216, 20 h, 10^6 cells per ml): 3.13 µg/mL (≈ 6.37 µM) |
| COc1ccc(-c2cc(=O)c(C(=O)O)cn2-c2ccc(O)cc2C)cc1 | 0.2 µg/mL (≈ 0.569 µM) | 0.1 µg/mL (≈ 0.285 µM) | 0.05 µg/mL (≈ 0.142 µM) | 0.39 µg/mL (≈ 1.11 µM) | 0.78 µg/mL (≈ 2.22 µM) | 0.1 µg/mL (≈ 0.285 µM) | 1.56 µg/mL (≈ 4.44 µM) | 1.56 µg/mL (≈ 4.44 µM) | ≤ 0.05 µg/mL | 3.13 µg/mL (≈ 8.91 µM) | 3.13 µg/mL (≈ 8.91 µM) | 0.1 µg/mL (≈ 0.285 µM) | 0.2 µg/mL (≈ 0.569 µM) | 0.78 µg/mL (≈ 2.22 µM) | 12.5 µg/mL (≈ 35.6 µM) | 0.1 µg/mL (≈ 0.285 µM) | ≤ 0.05 µg/mL | 0.39 µg/mL (≈ 1.11 µM) | 1.56 µg/mL (≈ 4.44 µM) | – |
| CNc1ccc(-c2cc(=O)c(C(=O)O)cn2-c2ccc(O)cc2)cc1C | 0.78 µg/mL (≈ 2.23 µM) | 0.39 µg/mL (≈ 1.11 µM) | 0.1 µg/mL (≈ 0.285 µM) | 0.78 µg/mL (≈ 2.23 µM) | 1.56 µg/mL (≈ 4.45 µM) | 0.39 µg/mL (≈ 1.11 µM) | 3.13 µg/mL (≈ 8.93 µM) | – | 0.39 µg/mL (≈ 1.11 µM) | 3.13 µg/mL (≈ 8.93 µM) | 3.13 µg/mL (≈ 8.93 µM) | 0.39 µg/mL (≈ 1.11 µM) | 0.39 µg/mL (≈ 1.11 µM) | 1.56 µg/mL (≈ 4.45 µM) | 6.25 µg/mL (≈ 17.8 µM) | 0.39 µg/mL (≈ 1.11 µM) | ≤ 0.05 µg/mL | 0.78 µg/mL (≈ 2.23 µM) | 0.78 µg/mL (≈ 2.23 µM) | MIC (Pro. morganii T-216; T216, 20 h, 10^6 cells per ml): 1.56 µg/mL (≈ 4.45 µM) |
| Cc1cc(O)ccc1-n1cc(C(=O)O)c(=O)cc1-c1ccc2c(ccn2C)c1 | ≤ 0.05 µg/mL | ≤ 0.05 µg/mL | 0.05 µg/mL (≈ 0.134 µM) | 0.39 µg/mL (≈ 1.04 µM) | 0.78 µg/mL (≈ 2.08 µM) | 0.2 µg/mL (≈ 0.534 µM) | 0.78 µg/mL (≈ 2.08 µM) | 0.78 µg/mL (≈ 2.08 µM) | 0.1 µg/mL (≈ 0.267 µM) | 3.13 µg/mL (≈ 8.36 µM) | 3.13 µg/mL (≈ 8.36 µM) | ≤ 0.05 µg/mL | 0.2 µg/mL (≈ 0.534 µM) | 0.78 µg/mL (≈ 2.08 µM) | 6.25 µg/mL (≈ 16.7 µM) | ≤ 0.05 µg/mL | ≤ 0.05 µg/mL | 0.39 µg/mL (≈ 1.04 µM) | 0.39 µg/mL (≈ 1.04 µM) | – |
| Cn1ccc2cc(-c3cc(=O)c(C(=O)O)cn3-c3ccc(F)cc3)ccc21 | 0.1 µg/mL (≈ 0.276 µM) | 0.39 µg/mL (≈ 1.08 µM) | 0.1 µg/mL (≈ 0.276 µM) | 1.56 µg/mL (≈ 4.31 µM) | 3.13 µg/mL (≈ 8.64 µM) | 0.78 µg/mL (≈ 2.15 µM) | – | 1.56 µg/mL (≈ 4.31 µM) | 0.2 µg/mL (≈ 0.552 µM) | 12.5 µg/mL (≈ 34.5 µM) | 12.5 µg/mL (≈ 34.5 µM) | 0.39 µg/mL (≈ 1.08 µM) | 1.56 µg/mL (≈ 4.31 µM) | 3.13 µg/mL (≈ 8.64 µM) | 25 µg/mL (≈ 69 µM) | 0.39 µg/mL (≈ 1.08 µM) | ≤ 0.05 µg/mL | 0.78 µg/mL (≈ 2.15 µM) | 0.78 µg/mL (≈ 2.15 µM) | MIC (Pro. mirabilis T-111; T111, 20 h, 10^6 cells per ml): 3.13 µg/mL (≈ 8.64 µM) |
| Cc1cc(O)ccc1-n1cc(C(=O)O)c(=O)cc1-c1ccccc1 | 0.78 µg/mL (≈ 2.43 µM) | 0.2 µg/mL (≈ 0.622 µM) | 0.1 µg/mL (≈ 0.311 µM) | 0.39 µg/mL (≈ 1.21 µM) | 0.78 µg/mL (≈ 2.43 µM) | 0.1 µg/mL (≈ 0.311 µM) | 0.78 µg/mL (≈ 2.43 µM) | 0.39 µg/mL (≈ 1.21 µM) | ≤ 0.05 µg/mL | 6.25 µg/mL (≈ 19.5 µM) | 3.13 µg/mL (≈ 9.74 µM) | 0.2 µg/mL (≈ 0.622 µM) | 0.39 µg/mL (≈ 1.21 µM) | 1.56 µg/mL (≈ 4.85 µM) | 12.5 µg/mL (≈ 38.9 µM) | 0.2 µg/mL (≈ 0.622 µM) | ≤ 0.05 µg/mL | 0.2 µg/mL (≈ 0.622 µM) | – | MIC (Ps. aeruginosa GN918**; GN918, 20 h): 1.56 µg/mL (≈ 4.85 µM) |
